The results in this text go back to US20260207754A1, “MET PROTEIN DEGRADATION INDUCING COMPOUND” (ONCOZEN CO., LTD., priority 2022, published 2026).

Molecules are shown by their SMILES.

What all share (type): cell-based
The subject of experiment [1] is c-MET (total form). The experiment is described as follows: Target protein degradation assay (Western blot). The conditions noted are these: H1437 cells, standard concentration and time 5 μM, 72 hours. How it is done:
Cells (H596 or H1437 cells) were seeded in Φ60 or Φ100 culture dishes to reach 5×10^5 or 1×10^6 cells, and then cultured for more than 12 hours. […] The cells were then harvested, lysed using RIPA buffer, and centrifuged (4° C., 13000 rpm, 15 min), to collect the supernatant in a new tube. Protein quantification was performed using the Bradford Assay, and samples were prepared for loading by boiling at 95° C. Western blotting was performed. The samples were loaded onto an SDS polyacrylamide gel (8% concentration). Electrophoresis was conducted at 80V, and then switched to 100-120V (when the loaded sample moves from the stacking gel to the running gel). After electrophoresis, the polyacrylamide gel was transferred onto the membrane (using transfer buffer diluted at 10× transfer buffer:methanol:D.W=1:2:7 ratio, cold, for 100V, 1 hour or 80V, 2 hours). The membrane was blocked with 5% skim milk for 30 minutes and washed with PBS-T (phosphate-buffered saline with Tween 20) buffer. The primary antibody was diluted in 5% BSA+NaN3 solution and reacted with the membrane for over 12 hours, followed by washing with PBS-T and reaction with 5% skim milk+secondary antibody for 1 hour and 30 minutes. After washing with PBS-T, the ECL solution was reacted with the membrane, and the bands were detected using an imaging device to confirm the degradation of the target protein c-MET.

Experiment [2] deals with c-MET (total form). The experiment is described as follows: Target protein degradation assay (Western blot). The conditions noted are these: H596 cells, Western blot; standard concentration and time 5 μM, 72 hours. How it is done: This experiment assessed the tendency and extent of degradation of the target protein c-MET (total form) in cells treated with each of the compounds prepared in Examples 1 to 11.
Cells (H596 or H1437 cells) were seeded in Φ60 or Φ100 culture dishes to reach 5×10^5 or 1×10^6 cells, and then cultured for more than 12 hours. After removing the media, the cells were treated with each respective compound prepared in Examples 1 to 11 at various conditions-concentrations (0, 2.5, 5, 10 μM), time (0, 6, 8, 24, 48, 72 hours), and standard concentration and time (5 μM, 72 hours) for all compounds. The cells were then harvested, lysed using RIPA buffer, and centrifuged (4° C., 13000 rpm, 15 min), to collect the supernatant in a new tube. Protein quantification was performed using the Bradford Assay, and samples were prepared for loading by boiling at 95° C. Western blotting was performed. The samples were loaded onto an SDS polyacrylamide gel (8% concentration). Electrophoresis was conducted at 80V, and then switched to 100-120V (when the loaded sample moves from the stacking gel to the running gel). After electrophoresis, the polyacrylamide gel was transferred onto the membrane (using transfer buffer diluted at 10× transfer buffer:methanol:D.W=1:2:7 ratio, cold, for 100V, 1 hour or 80V, 2 hours). The membrane was blocked with 5% skim milk for 30 minutes and washed with PBS-T (phosphate-buffered saline with Tween 20) buffer. The primary antibody was diluted in 5% BSA+NaN3 solution and reacted with the membrane for over 12 hours, followed by washing with PBS-T and reaction with 5% skim milk+secondary antibody for 1 hour and 30 minutes. After washing with PBS-T, the ECL solution was reacted with the membrane, and the bands were detected using an imaging device to confirm the degradation of the target protein c-MET.
For orientation: In western blotting, separated proteins are transferred to a membrane and probed.

Experiment [3] has as its system H1437 cells. As to the kind of experiment: Cell viability assay (CCK8). As to conditions: Homo sapiens, NCI-H1437, 72 h, three days treatment. The procedure:
(§1) This experiment involves treating cells with each of the compounds prepared in Examples 1 to 11, and then observing changes in cell cytotoxicity and cell count. The IC50 values, derived from the changes in cell count, can be used to assess the cancer cell growth inhibition and anti-cancer effects of the compound of the present invention.
(§2) Cells (H596 or H1437 cells) were seeded in a 96-well plate at 3×10^3 cells per well and then cultured for more than 12 hours. After removing the media, each well was treated with 200 μl of the respective diluted compounds prepared in Examples 1 to 11. Three days later, the media was removed, and each well was treated with 10 μl of CCK8 reagent+90 μl of media. After 3-4 hours of reaction, the absorbance was measured using an ELISA reader at a wavelength of 450 nm.

In experiment [4] the test system is H596 cells. The experiment is described as follows: Cell viability assay (CCK8). The conditions noted are these: Homo sapiens, NCI-H596, 72 h, three days treatment. How it is done: as §1, §2

The term IC50 denotes the point on the concentration scale where inhibition reaches its midpoint. Higher therefore signals weaker potency. With `CC(C)c1cc(C(=O)N(C)Cc2ccc(C(=O)NCCCCC(=O)N3CCC(COc4cnc(-c5cccc(Cn6nc(-c7cccc(C#N)c7)ccc6=O)c5)nc4)CC3)cc2)c(O)cc1O` [OZD-MET 11, N-{[4-({5-[4-({[2-(3-{[3-(3-cyanophenyl)-6-oxopyridazin-1-yl]methyl}phenyl)pyrimidin-5-yl]oxy}methyl)piperidin-1-yl]-5-oxopentyl}carbamoyl)phenyl]methyl}-2,4-dihydroxy-5-isopropyl-N-methylbenzamide], the “c-MET degradation H1437” value in experiment [1] is given as 1 (50% < degradation: 1). In experiment [2], the “c-MET degradation H596” value is 2 (10% < degradation < 50%: 2). Moreover, the IC50 in experiment [3] was determined as 3.44 µM; in experiment [4], 3.99 µM.
